Active and inactive are the calls of the source.

For data set [1], the system named is Rattus norvegicus. Kind of data set: Antianxiety activity in rat assessed as effect on increase in punished responses at 25 mg/kg, ip qd administered for 5 days measured every day for 5 days. Also on record: dose 25 mg/kg. It counts as functional, organism-based.
Data set [2] deals with Mus musculus. Kind of data set: Muscle relaxant activity in po dosed mouse assessed as increase in strychnine-induced persistant convulsive threshold. Type of data set: functional.
Data set [3] can be described thus: Acute toxicity in po dosed mouse assessed as mortality administered as qd for 6 days measured on day 7 post last dose. Type of data set: organism-based. The settings on record: in vivo.
For data set [4], the system named is Mus musculus. Description: Muscle relaxant activity in po dosed mouse assessed as blockade of pentylenetetrazol-induced tonic extensor seizure. Type of data set: functional.
The nature of data set [5]: Ratio of LD50 for po dosed mouse to PD50 for acute toxicity in po dosed mouse assessed as concentration required to produce 50% loss of righting reflex. Conditions: in vivo. It counts as organism-based.
Data set [6] has as its system Mus musculus. Kind of data set: Acute toxicity in po dosed mouse assessed as concentration required to produce 50% loss of righting reflex administered as qd for 4 days measured for 1 min post last dose. The settings on record: in vivo. Type of data set: organism-based.
The nature of data set [7]: Therapeutic index, ratio of PD50 for acute toxicity in po dosed mouse assessed as concentration required to produce 50% loss of righting reflex to MED25 for muscle relaxant activity in po dosed mouse assessed as increase in strychnine-induced persistant convulsive threshold. It counts as organism-based. Conditions: in vivo, read-out: TI.
Data set [8] relates to Rattus norvegicus. Description: Antianxiety activity in ip dosed rat assessed as effect on increase in punished responses administered qd for 5 days measured every day for 5 days. Type of data set: functional. The settings on record: 120 h, read-out: MED.
In data set [9] the test system is Mus musculus. Description: Anticonvulsant activity in po dosed mouse assessed as blockade of supramaximal electroshock-induced […] seizure. It counts as functional. Background: In the maximal electroshock model the usual endpoint is tonic extension of the hind limbs.
Data set [10] can be described thus: Therapeutic index, ratio of PD50 for acute toxicity in po dosed mouse assessed as concentration required to produce 50% loss of righting reflex to MED20 for anticonvulsant activity in po dosed mouse assessed as blockade of supramaximal electroshock-induced […] seizure. It counts as organism-based. The settings on record: in vivo, read-out: TI.
A short description of data set [11]: Therapeutic index, ratio of PD50 for acute toxicity in po dosed mouse assessed as concentration required to produce 50% loss of righting reflex to MED20 for muscle relaxant activity in po dosed mouse assessed as blockade of pentylenetetrazol-induced tonic extensor seizure. Type of data set: organism-based. The settings on record: in vivo, read-out: TI.
For data set [12], the system named is Mus musculus. Kind of data set: Sedative-hypnotic activity in mouse assessed as increase in pentylenetetrazol-induced pseudo/persistent-convulsive threshold at 50 to 200 mg/kg, po. Type of data set: functional, organism-based.
Data set [13] in a line: Therapeutic index, ratio of PD50 for acute toxicity in po dosed mouse assessed as concentration required to produce 50% loss of righting reflex to MED causing antianxiety activity in ip dosed rat assessed as effect on increase in punished responses. Type of data set: organism-based. The settings on record: in vivo, other: oral (PD50, mouse) and intraperitoneal (MED, rat), read-out: TI.

Data set [14] has as its system Mus musculus. Kind of data set: Sedative activity in mouse assessed as increase in pentylenetetrazol-induced pseudo-convulsive threshold at 25 mg/kg, po relative to control. Type of data set: functional.
The test system of data set [15] is Mus musculus. Description: Hypnotic activity in mouse assessed as increase in pentylenetetrazol-induced persistent-convulsive threshold at 50 mg/kg, po relative to control. It counts as functional.
For data set [16], the system named is Mus musculus. Kind of data set: Sedative activity in mouse assessed as increase in pentylenetetrazol-induced pseudo-convulsive threshold at 25 to 200 mg/kg, po. Type of data set: functional, organism-based.
For data set [17], the system named is Mus musculus. Description: Sedative activity in mouse assessed as increase in pentylenetetrazol-induced pseudo-convulsive threshold at 50 mg/kg, po relative to control. Type of data set: functional.
Data set [18] relates to Mus musculus. Description: Sedative activity in mouse assessed as increase in pentylenetetrazol-induced pseudo-convulsive threshold at 200 mg/kg, po relative to control. It counts as functional.
Data set [19] relates to Mus musculus. Description: Sedative activity in mouse assessed as increase in pentylenetetrazol-induced pseudo-convulsive threshold at 100 mg/kg, po. Type of data set: functional, organism-based. Also on record: dose 100 mg/kg.
Data set [20] relates to Mus musculus. Description: Hypotic activity in mouse assessed as increase in pentylenetetrazol-induced persistant-convulsive threshold at 200 mg/kg, po relative to control. Type of data set: functional, organism-based. Also on record: dose 200 mg/kg.

As to `CCCCCCCCCCCCNC(=O)/N=C1\CCCN1`, the outcome in the data set with Rattus norvegicus [1] was Active.
A word on the LD50: it is the dose expected to kill half of the subjects tested. In the case of `COc1ccccc1OCC(O)COC(N)=O` (stereo unspecified) [METHOCARBAMOL], the MED25 in the data set with Mus musculus [2] turned out to be 310 mg/kg. Moreover, the median lethal dose (LD50) at 144 h in data set [3] is 2000 mg/kg. Also, the MED20 stood at 150 mg/kg with Mus musculus [4] and 120 mg/kg in the data set on Mus musculus [9]. The selectivity ratio in data set [5] amounted to 1.9; in data set [7], 3.4; in data set [10], 8.7; in data set [11], 7. In addition, the PD50 in the data set with Mus musculus [6] was 1050 mg/kg. Further, the minimal effective dose in the data set on Rattus norvegicus [8] is above 25 mg/kg.
On to `CN1CCC/C1=N\C(=O)Nc1ccc([N+](=O)[O-])cc1`, for which the MED25 in the data set with Mus musculus [2] was above 200 mg/kg. In addition, in [3], the LD50 at 144 h was determined as 1310 mg/kg. For the same molecule, the outcome in the data set on Mus musculus [12] and in the data set with Mus musculus [16] was Active. The MED20 with Mus musculus [4] was 100 mg/kg; in the data set on Mus musculus [9], above 200 mg/kg. Moreover, the selectivity ratio in data set [5] amounted to 1; in data set [13], 80. Moreover, the PD50 in the data set on Mus musculus [6] stood at 1200 mg/kg. Besides, the Activity was found to be 25% with Mus musculus [14], 45% in the data set on Mus musculus [15] and 73% in the data set with Mus musculus [17]. Besides, the minimal effective dose with Rattus norvegicus [8] worked out at 15 mg/kg.
As to `CN1CCC/C1=N\C(=O)Nc1cccc(Cl)c1`, the Activity in the data set with Mus musculus [18] came to 50%. The MED25 in the data set with Mus musculus [2] stood at 50 mg/kg. For the same molecule, the 50% lethal dose (LD50) at 144 h in data set [3] was determined as 1500 mg/kg. The MED20 in the data set with Mus musculus [4] came to 32 mg/kg; in the data set with Mus musculus [9], 142 mg/kg. The selectivity ratio came to 1.6 in [5] and 63 in [13]. The PD50 with Mus musculus [6] is 950 mg/kg. In the data set on Rattus norvegicus [8], the minimal effective dose worked out at 15 mg/kg. The outcome in the data set on Mus musculus [16] was Active. Also, the outcome in the data set on Mus musculus [19] and with Mus musculus [20] was inactive.
